Results taken from patent US10294202B2, “Pyrrolidinones as herbicides” (FMC Corporation, priority 2013, dated 2019).

Tests used:
[1] = tested on: rice, transplanted; experiment: Test F flood (paddy) test; assay type: in vivo, Oryza sativa cv. Japonica—M202; settings: 21 d, scale 0-100
Text: Three plastic pots (ca. 16-cm diameter) per rate were partially filled with sterilized Tama silt loam soil comprising a 35:50:15 ratio of sand, silt and clay and 2.6% organic matter. Separate plantings for each of the three pots were as follows. Seeds from the U.S. of monochoria (Monochoria vaginalis), sedge, umbrella (small-flower umbrella sedge, Cyperus difformis), bulrush, […] bulrush, Scirpus juncoides), and […] (purple […] coccinea), were planted into one 16-cm pot for each rate. Seeds from the U.S. of flatsedge, rice (rice flatsedge, Cyperus iria), sprangletop, Brdd. (bearded sprangletop, Leptochloa fascicularis), one stand of 9 or 10 water seeded rice seedlings (Rice, W.S. Jap, Oryza sativa cv. 'Japonica-[…]' or Rice, W.S. Ind, 'Indica'), and two stands of 3 or 4 seedlings of rice, transplanted (transplanted rice, Oryza sativa cv. 'Japonica-[…]') were planted into one 16-cm pot for each rate. Seeds from the U.S. of barnyardgrass (Echinochloa crus-galli), […] (common […], Alisma plantago-aquatica), and watergrass, late (late watergrass, Echinochloa oryzicola) were planted into one 16-cm pot for each rate. Plantings were sequential so that crop and weed species were at the 2.0 to 2.5-leaf stage at time of treatment. Potted plants were grown in a greenhouse with day/night temperature settings of 30/27° C., and supplemental balanced lighting was provided to maintain a 16-h photoperiod. Test pots were maintained in the greenhouse until test completion. At time of treatment, test pots were flooded to 3 cm above the soil surface, treated by application of test compounds directly to the paddy water, and then maintained at that water depth for the duration of the test. Effects of treatments on rice and weeds were visually evaluated by comparison to untreated controls after 21 d. Plant response ratings, summarized in Table F, are based on a scale of 0 to 100 where 0 is no effect and 100 is complete control. A dash (-) response means no test result.

[2] = tested on: foxtail, green; experiment: Test C pre-/postemergence herbicide test; assay type: in vivo, Setaria viridis
In short: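 Test compounds, formulated in a surfactant-containing non-phytotoxic solvent blend, are applied to seeded loam/sand soil (preemergence) and to young plants at the 1- to 4-leaf stage in peat-based medium (postemergence). Plants stay 13 to 15 days under greenhouse conditions, then are scored visually relative to controls, 0 = no effect, 100 = complete control.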

[3] = tested on: pigweed; experiment: Test D pre-/postemergence herbicide test; assay type: in vivo, Amaranthus retroflexus; settings: for Plant response rating: Postemergence, Pigweed, scale 0 to 100; for Plant response rating, Pigweed: Preemergence, scale 0 to 100 (0 no effect, 100 complete control)
Text: (§1) Seeds of plant species selected from bluegrass (annual bluegrass, Poa annua), blackgrass (Alopecurus myosuroides), canarygrass (littleseed canarygrass, Phalaris minor), chickweed (common chickweed, Stellaria media), galium (catchweed bedstraw, Galium aparine), bromegrass, downy (downy bromegrass, Bromus tectorum), field poppy (Papaver rhoeas), field violet (Viola arvensis), foxtail, green (green foxtail, Setaria viridis), deadnettle (henbit deadnettle, Lamium amplexicaule), ryegrass, Italian (Italian ryegrass, Lolium multiflorum), kochia (Kochia scoparia), lambsquarters (Chenopodium album), oilseed rape (Brassica napus), pigweed (Amaranthus retroflexus), chamomile (scentless chamomile, Matricaria inodora), Russian thistle (Salsola kali), speedwell (bird's-eye speedwell, Veronica persica), barley, spring (spring barley, Hordeum vulgare), wheat, spring (spring wheat, Triticum aestivum), buckwheat, wild (wild buckwheat, Polygonum convolvulus), mustard, wild (wild mustard, Sinapis arvensis), oat, wild (wild oat, Avena fatua), radish, wild (wild radish, Raphanus raphanistrum), […]), barley, winter (winter barley, Hordeum vulgare), and wheat, winter (winter wheat, Triticum aestivum) were planted into a silt loam soil and treated preemergence with test chemicals formulated in a non-phytotoxic solvent mixture which included a surfactant. At the same time, these species were planted in pots containing Redi-Earth® planting medium (Scotts Company, 14111 Scottslawn Road, Marysville, Ohio 43041) comprising spaghnum peat moss, vermiculite, wetting agent and starter nutrients and treated with postemergence applications of the test chemicals formulated in the same manner. Plants ranged in height from 2 to 18 cm (1- to 4-leaf stage). Treated plants and controls were maintained in a controlled growth environment for 7 to 21 days after which time all species were compared to controls and visually evaluated. Plant response ratings, summarized in Table D, are based on a scale of 0 to 100 where 0 is no effect and 100 is complete control. A dash (-) response means no test result.

[4] = tested on: field violet; experiment: Test D pre-/postemergence herbicide test; assay type: in vivo, Viola arvensis; settings: for Plant response rating: Field Violet, scale 0 to 100; for Plant response rating, Field Violet: scale 0 to 100 (0 no effect, 100 complete control)
Text: as §1

[5] = Preemergence, 62 g ai/ha, scale 0 to 100
[6] = Preemergence, 125 g ai/ha, scale 0 to 100 (0 no effect, 100 complete control)
[7] = Preemergence, 31 g ai/ha, scale 0 to 100 (0 no effect, 100 complete control)
[8] = Preemergence, 250 g ai/ha, scale 0 to 100 (0 no effect, 100 complete control)
[9] = Postemergence, 31 g ai/ha, scale 0 (no effect) to 100 (complete control)
[10] = Postemergence, 62 g ai/ha, scale 0 to 100 (0 no effect, 100 complete control)
[11] = Postemergence, 125 g ai/ha, scale 0 to 100 (0 no effect, 100 complete control)
[12] = Postemergence, 250 g ai/ha, scale 0 to 100 (0 no effect, 100 complete control)

| SMILES | Plant response rating, Rice, Transplanted ([1]; 125 g ai/ha) | Plant response rating, Rice, Transplanted ([1]; 250 g ai/ha) | Plant response rating, Rice, Transplanted ([1]; 500 g ai/ha) | Plant response rating, Foxtail, Green [2, 5] | Plant response rating, Foxtail, Green [2, 6] | Foxtail, Green plant response rating [2, 7] | Plant response rating, Foxtail, Green [2, 8] | Plant response rating, Pigweed ([3]; 62 g ai/ha) | Plant response rating, Pigweed ([3]; 125 g ai/ha) | Plant response rating, Pigweed ([3]; 31 g ai/ha) | Plant response rating, Pigweed ([3]; 250 g ai/ha) | also measured |
| --- | --- | --- | --- | --- | --- | --- | --- | --- | --- | --- | --- | --- |
| O=C1NCC(c2ccc(F)c(F)c2)C1C(=O)Nc1cccc(F)c1F (racemic) [Compound 101] | 0 | 0 | 0 |  |  |  |  |  |  |  |  | Plant response rating, Rice, Transplanted ([1]; 64 g ai/ha): 0 |
| O=C1NCC(c2cccc(C(F)F)c2)C1C(=O)Nc1ccccc1F (racemic) [Compound 210] | 0 | 0 | 0 |  |  |  |  |  |  |  |  |  |
| O=C1NCCC1C(=O)N(c1ccc(F)c(F)c1)c1ccccc1F (centres unmarked) [Compound 5, N-(3,4-difluorophenyl)-N-(2-fluorophenyl)-2-oxo-3-pyrrolidinecarboxamide] | 0 | 0 | 0 | 90 | 90 | 85 | 95 |  |  |  |  | Plant response rating, Rice, Transplanted ([1]; 1000 g ai/ha): 0; Plant response rating, Rice, Transplanted ([1]; 2000 g ai/ha): 0 |
| O=C1NCC(c2ccc(F)c(F)c2)C1C(=O)Nc1cccc(F)c1F (centres unmarked) [Compound 17, N-(2,3-difluorophenyl)-4-(3,4-difluorophenyl)-2-oxo-3-pyrrolidinecarboxamide] | 10 | 10 | 10 | 95 | 98 | 95 | 98 |  |  |  |  | Plant response rating, Rice, Transplanted ([1]; 1000 g ai/ha): 10; Plant response rating, Rice, Transplanted ([1]; 2000 g ai/ha): 10; Plant response rating ([3]; 16 g ai/ha): 0; Plant response rating ([3]; 31 g ai/ha): 0; Plant response rating ([3]; 62 g ai/ha): 40; Plant response rating ([3]; 125 g ai/ha): 50; Plant response rating ([3]; 250 g ai/ha): 50; Plant response rating ([4]; Postemergence, 16 g ai/ha): 0; Plant response rating ([4]; Postemergence, 31 g ai/ha): 0; Plant response rating ([4]; Postemergence, 62 g ai/ha): 0; Plant response rating ([4]; Postemergence, 125 g ai/ha): 0; Plant response rating ([4]; Postemergence, 250 g ai/ha): 10; Plant response rating, Foxtail, Green [2, 9]: 0; Plant response rating, Foxtail, Green [2, 10]: 0; Plant response rating, Foxtail, Green [2, 11]: 0; Plant response rating, Foxtail, Green [2, 12]: 0 |
| O=C1NCC(c2ccc(Cl)c(F)c2)C1C(=O)Nc1cccc(F)c1F (centres unmarked) [Compound 52] |  |  |  | 90 | 90 | 80 | 90 | 10 | 10 | 10 | 15 | Plant response rating ([3]; 16 g ai/ha): 0; Plant response rating ([3]; 31 g ai/ha): 0; Plant response rating ([3]; 62 g ai/ha): 0; Plant response rating ([3]; 125 g ai/ha): 30; Plant response rating ([3]; 250 g ai/ha): 40; Plant response rating, Pigweed ([3]; 16 g ai/ha): 0; Plant response rating ([4]; Postemergence, 16 g ai/ha): 0; Plant response rating ([4]; Postemergence, 31 g ai/ha): 0; Plant response rating ([4]; Postemergence, 62 g ai/ha): 0; Plant response rating ([4]; Postemergence, 125 g ai/ha): 0; Plant response rating ([4]; Postemergence, 250 g ai/ha): 0; Plant response rating, Foxtail, Green [2, 9]: 0; Plant response rating, Foxtail, Green [2, 10]: 10; Plant response rating, Foxtail, Green [2, 11]: 30; Plant response rating, Foxtail, Green [2, 12]: 80 |
| O=C1NC[C@H](c2cccc(C(F)(F)F)c2)[C@H]1C(=O)Nc1ccccc1F [Compound 204, (3R,4S)—N-(2-fluorophenyl)-2-oxo-4-[3-(trifluoromethyl)phenyl]-3-pyrrolidinecarboxamide] | 0 | 0 | 0 |  |  |  |  | 5 | 35 | 0 | 35 | Plant response rating, Field Violet ([4]; Preemergence, 62 g ai/ha): 15; Plant response rating, Field Violet ([4]; Preemergence, 125 g ai/ha): 25; Plant response rating, Field Violet ([4]; Preemergence, 31 g ai/ha): 10; Plant response rating ([4]; Preemergence, 250 g ai/ha): 25 |
| O=C1NC[C@H](c2cccc(C(F)(F)F)c2)[C@H]1C(=O)Nc1cccc(F)c1F [Compound 206] | 0 | 10 | 40 |  |  |  |  | 20 | 40 | 5 | 50 | Plant response rating, Rice, Transplanted ([1]; 64 g ai/ha): 0; Plant response rating, Field Violet ([4]; Preemergence, 62 g ai/ha): 35; Plant response rating, Field Violet ([4]; Preemergence, 125 g ai/ha): 35; Plant response rating, Field Violet ([4]; Preemergence, 31 g ai/ha): 15; Plant response rating ([4]; Preemergence, 250 g ai/ha): 25 |
| CN1CC(c2ccc(F)c(F)c2)C(C(=O)Nc2cccc(F)c2F)C1=O (centres unmarked) [Compound 303] | 0 | 15 | 30 |  |  |  |  |  |  |  |  | Plant response rating, Rice, Transplanted ([1]; 62 g ai/ha): 0 |
